According to patent US12558428B2, “Heterobifunctional compounds and their use in treating disease” (Halda Therapeutics OpCo, Inc., priority 2024, dated 2026):
pKd: −log10 of the molar value.

Assays:
[1] = biological target: T1, BRD4-BD1 (Homo sapiens, UniProt O60885); test: Binding affinity to BRD4-BD1 (bromoKdELECT assay)
T1 construct: made in house; host or cells: T7 phage grown in E. coli host derived from BL21
Method: Exemplary compounds were tested for ability to bind to BRD4-BD 1.
Compounds were tested using a bromoKdELECT assay. T7 phage strains displaying bromodomains were grown in parallel in 24-well blocks in an E. coli host derived from the BL21 strain. E. coli were grown to log-phase and infected with T7 phage from a frozen stock (multiplicity of infection=0.4) and incubated with shaking at 32° C. until lysis (90-150 minutes). The lysates were centrifuged (5,000×g) and filtered ([…]) to remove cell debris. […] The liganded beads were blocked with excess biotin and washed with blocking buffer (SeaBlock (Pierce), 1% BSA, 0.05% Tween 20, 1 mM DTT) to remove unbound ligand and to reduce nonspecific phage binding. […] Test compounds were prepared as 1000× stocks in 100% DMSO. Kds were determined using an 11-point 3-fold compound dilution series with one DMSO control point. […] The compounds were then diluted directly into the assays such that the final concentration of DMSO was 0.09%. All reactions performed in polypropylene 384-well plates. Each was a final volume of 0.02 ml. […] The bromodomain concentration in the eluates was measured by qPCR.

[2] = biological target: T2, BRD4-BD2 (Homo sapiens, UniProt O60885); test: Binding affinity to BRD4-BD2 (bromoKdELECT assay)
T2 construct: made in house; host or cells: T7 phage grown in E. coli host derived from BL21
Method: Exemplary compounds were tested for ability to bind to BRD4-BD2.
Compounds were tested using a bromoKdELECT assay. T7 phage strains displaying bromodomains were grown in parallel in 24-well blocks in an E. coli host derived from the BL21 strain. E. coli were grown to log-phase and infected with T7 phage from a frozen stock (multiplicity of infection=0.4) and incubated with shaking at 32° C. until lysis (90-150 minutes). The lysates were centrifuged (5,000×g) and filtered ([…]) to remove cell debris. Streptavidin-coated magnetic beads were treated with biotinylated small molecule or acetylated peptide ligands for 30 minutes at room temperature to generate affinity resins for bromodomain assays. The liganded beads were blocked with excess biotin and washed with blocking buffer (SeaBlock (Pierce), 1% BSA, 0.05% Tween 20, 1 mM DTT) to remove unbound ligand and to reduce nonspecific phage binding. Binding reactions were assembled by combining bromodomains, liganded affinity beads, and test compounds in 1× binding buffer (17% SeaBlock, 0.33×PBS, 0.04% Tween 20, 0.02% BSA, 0.004% Sodium azide, 7.4 mM DTT). Test compounds were prepared as 1000× stocks in 100% DMSO. Kds were determined using an 11-point 3-fold compound dilution series with one DMSO control point. […] The bromodomain concentration in the eluates was measured by qPCR.

[3] = system: MCF7 cells (ATCC #HTB-22); test: Cellular growth inhibition assay, MCF7 cells purchased from ATCC; format: cell-based; details: Homo sapiens, MCF7, 144 h, Table 8-A; MCF7 cells purchased from ATCC; six days; CellTiter-Glo; read-out: GI50
In short: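 GI50 values come from a four-parameter fit of CellTiter-Glo 2.0 luminescence after six days of compound exposure at 37° C. Seeding density depended on the source: 225 cells/well for ECACC MCF7, 1,500 for ATCC. Medium was RPMI 1640 with 10% FBS and 0.2 U/ml insulin.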

pKd [1]	pKd [2]	GI50 [3]	SMILES
6.30 to 7.30	> 7.30	50 to 500 nM	CCN(CCCCCCCCNC(=O)C[C@@H]1N=C(c2ccc(Cl)cc2)c2c(sc(C)c2C)-n2c(C)nnc21)CCOc1ccc(C(=O)c2c(-c3ccc(O)cc3)sc3cc(O)ccc23)cc1 [I-2, (S)-2-(4-(4-chlorophenyl)-2,3,9-trimethyl-6H-thieno[3,2-f][1,2,4]triazolo[4,3-a][1,4]diazepin-6-yl)-N-(8-(ethyl(2-(4-(6-hydroxy-2-(4-hydroxyphenyl)benzo[b]thiophene-3-carbonyl)phenoxy)ethyl)amino)octyl)acetamide]
> 7.30	> 7.30	50 to 500 nM	CCN(CCOCCOCCNC(=O)C[C@@H]1N=C(c2ccc(Cl)cc2)c2c(sc(C)c2C)-n2c(C)nnc21)CCOc1ccc(C(=O)c2c(-c3ccc(O)cc3)sc3cc(O)ccc23)cc1 [I-3, (S)-2-(4-(4-chlorophenyl)-2,3,9-trimethyl-6H-thieno[3,2-f][1,2,4]triazolo[4,3-a][1,4]diazepin-6-yl)-N-(2-(2-(2-(ethyl(2-(4-(6-hydroxy-2-(4-hydroxyphenyl)benzo[b]thiophene-3-carbonyl)phenoxy)ethyl)amino)ethoxy)ethoxy)ethyl) acetamide]
